Holding throughout (format): cell-based, human
For test [1], the system named is allergen specific T cells. In words: T cell proliferation assay (72 h) on donor derived T cell lines (TCL02/TCL03). The note with it: for Proliferation % donor coverage (TCL-02 DK1): T cell lines TCL-02 DK1, 30 donors, hit criteria SI>=2, CPM>=1000; for Proliferation strength (TCL-02 DK1): T cell lines TCL-02 DK1, strength of response (average relative magnitude). The text has this:
Isolated PBMCs (peripheral blood mononuclear cells) obtained from the donors described in Example 2 were CD8 depleted and the T cell lines were established by stimulating the cultures with nPhl p1, mix of nPhl p 2 and […] 5 and […] established for each of the donors tested by stimulating with the mixture of above listed allergens. Grass allergic donors were recruited (cohort DK1 including 30 grass allergic individuals, DK2 including 24 grass allergic individuals and US1 including 15 grass allergic individuals). PBMCs were isolated from freshly drawn heparinized blood by gradient centrifugation on lymphoprep (Nycomed, Norway), washed twice and re-suspended in RPMI 1640 medium with HEPES and ultraglutamine (Cambrex, Belgium) supplemented with 5% v/v human AB-serum (Cambrex, Belgium), 100 units/ml penicillin, and 0.1 mg/ml streptomycin (Sigma, St Louis, USA) (referred to as 5% AB-medium). Aliquots of the isolated PBMCs were frozen and were thawed later to stimulate the T cell lines. Additionally either fresh or thawed PBMCs were used as antigen presenting cells (APCs) in the proliferation assay as described later. In some cases the PBMCs were freezed at this stage and thawed later on to continue the experiment as described in the following. The isolated PBMCs (fresh or thawed) were CD8 depleted by MACS magnetic depletion according to the manufacturer's instructions (Miltenyi Biotec, Bergisch Gladbach, Germany). On day 0 the CD8-depleted PBMCs (2×10^6/ml) were stimulated in 1 ml bulk cultures in AB medium in 24 well plates (Nunc, Denmark) with the mixture of natural allergens: nPhl p 1 (0.5 μg/ml), mix of […]). […] On day 14 cells were harvested to obtain T cell line generation 01 (referred to as TCL01). Restimulation of T cell lines were performed in AB-medium with the thawed autologous PBMCs (10^6/well, irradiated 2500 Rad), the above mixture of natural allergens (concentration as mentioned above), and PHA-P (0.5 μg/ml, Difco, Detroit, Mich., USA). rIL-2 was added at day 17, 18 and 19. On day 24 cells were harvested to obtain T cell line generation 02 (referred as TCL02). T cells were isolated, washed, counted and used for T cell proliferation assay as described later. Remaining cells were frozen for later thawing and re-stimulations. The T cell line generation 2 (TCL02) were thawed and were re-stimulated with allogeneic Epstein Bar Virus transformed lymphoblastoid cell lines (EBV) B cells (JY cells, 10^5/well, irradiated 3500 Rad), allogeneic PBMCs (10^6/well, irradiated 2500 Rad), and 0.5 μg/ml PHA-P and subsequent addition of rIL-2 at days 3-5 to generate T cell line generation 03 (referred to as TCL03). […] To summarize ELISpot experiments were carried out at day 14 (with TCL01) and proliferation assay on either day 24 (with TCL02) or at day 34 (with TCL03). […] To ensure that all T cell epitopes regions from the major and intermediate grass allergens of the grass were identified T cell screening was carried out with either overlapping peptides or selected peptides. […] These were overlapping 20-mer peptides spanning the entire full length amino acid sequence of […] and selected high binder peptides from Phl p 4 were tested. Additionally 21, 15 mer peptides were tested which were derived from various group 1 and 5 allergens. Also, 67 peptides from homologous grass allergens were tested. Finally some reference peptides and mixes thereof were also tested. The 15-mer peptides were selected on the basis of predicted and measured promiscuous HLA binding and of sequence homology between known proteins sequences from the relevant pooideae grasses and the Bermuda grass. […] To get comprehensive data from all the donors the peptides were tested in both Fluorospot/Elispot (day 14, TCL01) and proliferation (day 24, TCL02).

In test [2] the test system is release of IL-5 upon T cell activation. As to the kind of experiment: Fluorospot assay, IL-5 release (DK1-TCL01, US1-TCL01). The following applies: head prints TCL-02 DK1; text: 25 TCL-01 DK1 lines. How it is done:
(§1) Grass allergic donors were recruited (cohort DK1 including 30 grass allergic individuals, DK2 including 24 grass allergic individuals and US1 including 15 grass allergic individuals). PBMCs were isolated from freshly drawn heparinized blood by gradient centrifugation on lymphoprep (Nycomed, Norway), washed twice and re-suspended in RPMI 1640 medium with HEPES and ultraglutamine (Cambrex, Belgium) supplemented with 5% v/v human AB-serum (Cambrex, Belgium), 100 units/ml penicillin, and 0.1 mg/ml streptomycin (Sigma, St Louis, USA) (referred to as 5% AB-medium). Aliquots of the isolated PBMCs were frozen and were thawed later to stimulate the T cell lines. Additionally either fresh or thawed PBMCs were used as antigen presenting cells (APCs) in the proliferation assay as described later. In some cases the PBMCs were freezed at this stage and thawed later on to continue the experiment as described in the following. The isolated PBMCs (fresh or thawed) were CD8 depleted by MACS magnetic depletion according to the manufacturer's instructions (Miltenyi Biotec, Bergisch Gladbach, Germany). On day 0 the CD8-depleted PBMCs (2×10^6/ml) were stimulated in 1 ml bulk cultures in AB medium in 24 well plates (Nunc, Denmark) with the mixture of natural allergens: nPhl p 1 (0.5 μg/ml), mix of nPhl p 2/nPhl p 3 (1.0 μg/ml), nPhl p 4 (0.5 μg/ml), nPhl p 5 (0.5 μg/ml) and nCyn d 1 (0.5 μg/ml). Amount of 65 U, 30 U, and 30 U recombinant IL-2 (Chiron, USA) were added per well at days 5, 6 and 7, respectively. On day 14 cells were harvested to obtain T cell line generation 01 (referred to as TCL01).
(§2) On day 14 the T cells of TCL01 were isolated, washed and counted. The isolated T cells of TCL01 generation were used to perform either ELISpot or Fluorospot assay. TCL01 were further re-stimulated as described in the next paragraph for use in T cell proliferation. The aliquot for use in T cell proliferation was re-stimulated on day 14 to carry out proliferation experiment at day 24.
(§3) In the Fluorospot assays, release of IL-5 and IFN-γ upon T cell activation (of donor derived lines DK1-TCL01, and US1-TCL01) with a peptide or a peptide-mix described herein was measured by Fluorospot assay kit (Mabtech AB) and procedures were followed as per manufacturer's instructions. Briefly anti-human IL-5 and anti-human IFN-γ coated 96 well plates were obtained and blocked with 10% AB serum in RPMI. The plates were washed thoroughly and the isolated T cells were plated and incubated with either single peptides (2 μg/ml) or peptide mixes (2 μg/ml), or allergens nPhl p1, nPhl p 2, nPhl p 3, nPhl p 4, nPhl p 5, Cyn d 1 at 2 μg/ml for 20 hrs/37° C./5% CO2. After the incubation time the cells were removed by emptying the plate. Detection antibodies 7-B6-1-FS-FITC (1:200) and 5A10-biotin (2 μg/ml) were diluted in PBS-0.1% BSA and were added to the plate and incubated for 2 hours/room temperature (RT). There-after the plates were washed and anti-FITC-green (1:200) and SA-Red (1:200) diluted in PBS±0.1% BSA were added and incubated for 1 hour/RT/dark. After the incubation period the plates were washed, emptied and fluorescence enhancer solution was added for 15 minutes/RT. Plates were emptied, fluorescence enhancer solution was firmly tapped out against a clean paper, soft plastic under drain was removed and the plates were left in the dark to dry. The counts were inspected in a fluorospot reader. Hit criteria for peptide were 20 SFCs/10^6 PBMCs, p≤0.05 and poisson 0.05 stimulated cells compared to background, and a stimulation index (SI)≥2.
(§4) The peptides were identified as hits if they fulfilled the criteria as mentioned below where stimulation index (SI) value of 2 or above, Poisson value=<0.05 and P value=<0.05, SFC>=20 (IL-5/IFN-g)/10^6 cells and CPM>=1000 (proliferation) SI can be defined as [[…]/medium control] in a Fluorospot assay and [counts per minute (cpm)/medium control] in a proliferation assay.

Test [3] deals with release of IFN-γ upon T cell activation. In words: Fluorospot assay, IFN-γ release (DK1-TCL01, US1-TCL01). The note with it: head prints TCL-02 DK1; 17 TCL-01 DK1 lines. How it is done: as §1, §2, §3, §4

Molecules are shown by their SMILES.

In the case of `CC[C@H](C)[C@H](NC(=O)[C@@H](NC(=O)[C@H](CC(=O)O)NC(=O)[C@H](CCC(=O)O)NC(=O)[C@H](C)NC(=O)[C@H](CCC(=O)O)NC(=O)[C@@H](N)[C@@H](C)O)C(C)C)C(=O)N1CCC[C@H]1C(=O)N[C@@H](CCC(=O)O)C(=O)NCC(=O)N[C@@H](Cc1c[nH]c2ccccc12)C(=O)N[C@@H](CCCCN)C(=O)N[C@@H](C)C(=O)N[C@@H](CC(=O)O)C(=O)N[C@H](C(=O)N[C@@H](CO)C(=O)N[C@@H](Cc1ccc(O)cc1)C(=O)N[C@@H](CCC(=O)O)C(=O)N[C@@H](CO)C(=O)N[C@@H](CCCCN)C(=O)O)[C@@H](C)O` [compound 13], in test [1], the “Proliferation % donor coverage (TCL-02 DK1)” value (“Proliferation % donor coverage” below) is 43.33% and the “Proliferation strength (TCL-02 DK1)” value is given as 8.10. Besides, the “IL-5-Fluorospotr % donor coverage (TCL-02 DK1)” value in test [2] is 16.00%. For the same molecule, the “IFN-gamma % donor coverage (TCL-02 DK1)” value in test [3] was 8.00%.

Consider `CC[C@H](C)[C@H](NC(=O)[C@H](CCCCN)NC(=O)[C@@H](NC(=O)[C@H](CC(C)C)NC(=O)[C@@H](NC(=O)[C@@H]1CCCN1C(=O)[C@H](CCC(=O)O)NC(=O)CNC(=O)[C@H](CO)NC(=O)[C@H](CO)NC(=O)[C@H](CCC(=O)O)NC(=O)[C@@H](NC(=O)[C@@H]1CCCN1)C(C)C)C(C)C)C(C)C)C(=O)N[C@H](C(=O)N[C@@H](CC(=O)O)C(=O)N[C@@H](CCCCN)C(=O)N[C@@H](CC(N)=O)C(=O)N[C@@H](Cc1ccc(O)cc1)C(=O)N[C@@H](CCC(=O)O)C(=O)N[C@@H](Cc1c[nH]cn1)C(=O)O)[C@@H](C)O` [compound 97], for which, in test [1], the “Proliferation % donor coverage” value is reported as 10.00% and the “Proliferation strength (TCL-02 DK1)” value amounted to 0.70. Moreover, the “IL-5-Fluorospotr % donor coverage (TCL-02 DK1)” value in test [2] was found to be 4.00%. The “IFN-gamma % donor coverage (TCL-02 DK1)” value in test [3] was 8.00%.

For `CC(C)C[C@H](NC(=O)[C@H](CCC(=O)O)NC(=O)CN)C(=O)N[C@@H](CCC(=O)O)C(=O)N[C@@H](CC(C)C)C(=O)N[C@@H](CCC(N)=O)C(=O)N[C@@H](Cc1ccccc1)C(=O)N[C@@H](CCCNC(=N)N)C(=O)N[C@@H](CCCNC(=N)N)C(=O)N[C@H](C(=O)N[C@@H](CCCCN)C(=O)N[C@@H](CO)C(=O)N[C@@H](CCCCN)C(=O)N[C@@H](Cc1ccc(O)cc1)C(=O)N1CCC[C@H]1C(=O)O)C(C)C` [compound 118], in test [1], the “Proliferation % donor coverage” value is on record as 65.52% and the “Proliferation strength (TCL-02 DK1)” value is 11.50. In test [2], the “IL-5-Fluorospotr % donor coverage (TCL-02 DK1)” value is 25.00%. The “IFN-gamma % donor coverage (TCL-02 DK1)” value in test [3] came out at 4.00%.

`CC[C@H](C)[C@H](NC(=O)[C@H](CCCCN)NC(=O)[C@H](CCC(=O)O)NC(=O)[C@@H](NC(=O)[C@@H](N)CC(C)C)[C@@H](C)CC)C(=O)N[C@@H](CC(N)=O)C(=O)N[C@@H](C)C(=O)NCC(=O)N[C@@H](Cc1ccccc1)C(=O)N[C@@H](CCCCN)C(=O)N[C@@H](C)C(=O)N[C@@H](C)C(=O)N[C@H](C(=O)N[C@@H](C)C(=O)N[C@@H](C)C(=O)O)C(C)C` [compound 123]: in test [1], the “Proliferation % donor coverage” value is recorded as 53.33% and the “Proliferation strength (TCL-02 DK1)” value was 7.90. In addition, the “IL-5-Fluorospotr % donor coverage (TCL-02 DK1)” value in test [2] is 12.50%. Further, the “IFN-gamma % donor coverage (TCL-02 DK1)” value in test [3] amounted to 0.00%.

For the molecule `CC[C@H](C)[C@H](NC(=O)[C@H](CC(N)=O)NC(=O)[C@H](CC(C)C)NC(=O)[C@@H](NC(=O)[C@H](CC(C)C)NC(=O)[C@@H](NC(=O)[C@H](CCCCN)NC(=O)[C@H](C)NC(=O)[C@H](CC(=O)O)NC(=O)[C@@H](N)CO)[C@@H](C)O)C(C)C)C(=O)N[C@@H](CCCCN)C(=O)N[C@@H](Cc1ccc(O)cc1)C(=O)N[C@H](C(=O)N[C@@H](CCCNC(=N)N)C(=O)N1CCC[C@H]1C(=O)O)[C@@H](C)O` [compound 125], in test [1], the “Proliferation % donor coverage” value is 31.03% and the “Proliferation strength (TCL-02 DK1)” value amounted to 6.30. Further, the “IL-5-Fluorospotr % donor coverage (TCL-02 DK1)” value in test [2] was found to be 12.50%. The “IFN-gamma % donor coverage (TCL-02 DK1)” value in test [3] was found to be 4.00%.

Take `CSCC[C@H](N)C(=O)N[C@@H](CCCNC(=N)N)C(=O)N[C@@H](CC(N)=O)C(=O)N[C@H](C(=O)N[C@@H](Cc1ccccc1)C(=O)N[C@@H](CC(=O)O)C(=O)N[C@@H](CC(=O)O)C(=O)N[C@H](C(=O)N[C@H](C(=O)N1CCC[C@H]1C(=O)N[C@@H](C)C(=O)N[C@@H](CC(=O)O)C(=O)N[C@@H](Cc1ccccc1)C(=O)N[C@@H](CCCCN)C(=O)N[C@H](C(=O)O)C(C)C)C(C)C)C(C)C)C(C)C` [compound 126]: in test [1], the “Proliferation % donor coverage” value was 37.93% and the “Proliferation strength (TCL-02 DK1)” value is given as 0.40. The “IL-5-Fluorospotr % donor coverage (TCL-02 DK1)” value in test [2] is reported as 8.33%. Also, the “IFN-gamma % donor coverage (TCL-02 DK1)” value in test [3] worked out at 0.00%.

The values above are taken from patent US20180207228A1, “PEPTIDE COMBINATIONS AND USES THEREOF FOR TREATING GRASS ALLERGY” (ALK-Abelló A/S, priority 2015, published 2018).
